How the values were obtained:
Type in all cases: in vivo
[1] = system: horseweed (Erigeron canadensis); assay: Test A1 postemergence, horseweed; settings: Postemergence
How it was run: (§1)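 Herbicidal response was scored on plants treated either preemergence, by directed spray onto soil of a loam–sand blend after sowing, or postemergence on potted plants at the one- to two-leaf stage, 2–10 cm high. Test chemicals were carried in a non-phytotoxic solvent mix with surfactant.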

[2] = system: Pigweed, Palmer (palmer amaranth, palmer pigweed, Amaranthus palmeri); assay: Test A1 postemergence, Pigweed, Palmer; settings: Postemergence
How it was run: (§2)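 Pre: seeds in loam/sand blend, directed soil spray. Post: potted plants, same soil, 2–10 cm, 1–2 leaf stage. Chemicals in non-phytotoxic solvent + surfactant for both.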

[3] = system: galium (catchweed bedstraw, Galium aparine); assay: Test A1 postemergence, galium; settings: Postemergence
How it was run: as §1

[4] = system: wheat (Triticum aestivum); assay: Test A1 preemergence, wheat
How it was run: (§3)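 Both timings started from seed in a loam-sand blend. Preemergence pots got a directed soil application immediately; postemergence pots were sprayed when seedlings had one or two leaves and stood 2–10 cm. Each compound was prepared in a non-phytotoxic solvent plus surfactant.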

[5] = system: Ryegrass, Italian (Italian ryegrass, Lolium multiflorum); assay: Test A1 preemergence, Ryegrass, Italian
How it was run: as §3

[6] = system: Oat, Wild (wild oat, Avena fatua); assay: Test A1 preemergence, Oat, Wild
How it was run: as §3

[7] = system: ragweed (common ragweed, Ambrosia artemisiifolia); assay: Test A1 preemergence, ragweed
How it was run: as §3

[8] = system: ducksalad (Heteranthera limosa); assay: Test B1 flooded paddy test, ducksalad; settings: 250 g ai/ha, Flood, applied to paddy water, 2-leaf stage, visually evaluated after 10 to 14 days
Text: (§4) A dash (-) response means no test result.

[9] = system: blackgrass (Alopecurus myosuroides); assay: Test A1 preemergence, blackgrass
Text: Seeds of plant species selected from, blackgrass (Alopecurus myosuroides), corn (Zea mays), Foxtail, Giant (giant foxtail, Setaria faberi), goosegrass (Eleusine indica), kochia (Bassia scoparia), Oat, Wild (wild oat, Avena fatua), Pigweed, Palmer (palmer amaranth, palmer pigweed, Amaranthus palmeri), ragweed (common ragweed, Ambrosia artemisiifolia), Ryegrass, Italian (Italian ryegrass, Lolium multiflorum), soybean (Glycine max), and wheat (Triticum aestivum) were planted into a blend of loam soil and sand and treated preemergence with a directed soil spray using test chemicals formulated in a non-phytotoxic solvent mixture which included a surfactant. At the same time, plants selected from these crop and weed species and also galium (catchweed bedstraw, Galium aparine) and horseweed (Erigeron canadensis) were planted in pots containing the same blend of loam soil and sand and treated with postemergence applications of test chemicals formulated in the same manner. Plants ranged in height from 2 to 10 cm and were in the one- to two-leaf stage for the postemergence treatment. […] A dash (-) response means no test result.

[10] = system: kochia (Bassia scoparia); assay: Test A1 preemergence, kochia
How it was run: as §3

[11] = system: soybean (Glycine max); assay: Test A1 postemergence, soybean; settings: Postemergence
How it was run: as §1

[12] = system: soybean (Glycine max); assay: Test A1 preemergence, soybean
How it was run: as §3

[13] = system: blackgrass (Alopecurus myosuroides); assay: Test A1 postemergence, blackgrass; settings: Postemergence, 0 to 100 scale (0 no effect, 100 complete control)
How it was run: as §1

[14] = system: goosegrass (Eleusine indica); assay: Test A1 postemergence, goosegrass; settings: Postemergence
How it was run: as §1

[15] = system: Foxtail, Giant (giant foxtail, Setaria faberi); assay: Test A1 postemergence, Foxtail, Giant; settings: Postemergence
How it was run: as §1

[16] = system: rice (Oryza sativa); assay: Test B1 flooded paddy test, rice; settings: 250 g ai/ha, Flood, applied to paddy water, 2-leaf stage, visually evaluated after 10 to 14 days
Text: as §4

[17] = system: goosegrass (Eleusine indica); assay: Test A1 preemergence, goosegrass
How it was run: as §3

[18] = system: kochia (Bassia scoparia); assay: Test A1 postemergence, kochia; settings: Postemergence
How it was run: as §1

[19] = system: Foxtail, Giant (giant foxtail, Setaria faberi); assay: Test A1 preemergence, Foxtail, Giant
How it was run: as §3

[20] = system: wheat (Triticum aestivum); assay: Test A1 postemergence, wheat; settings: Postemergence
How it was run: as §1

[21] = system: corn (Zea mays); assay: Test A1 preemergence, corn
How it was run: as §2

[22] = system: corn (Zea mays); assay: Test A1 postemergence, corn; settings: Postemergence
How it was run: as §3

[23] = system: barnyardgrass (Echinochloa crus-galli); assay: Test B1 flooded paddy test, barnyardgrass; settings: 250 g ai/ha, Flood, applied to paddy water, 2-leaf stage, visually evaluated after 10 to 14 days
Text: as §4

[24] = system: ragweed (common ragweed, Ambrosia artemisiifolia); assay: Test A1 postemergence, ragweed; settings: Postemergence
How it was run: as §2

[25] = system: Pigweed, Palmer (palmer amaranth, palmer pigweed, Amaranthus palmeri); assay: Test A1 preemergence, Pigweed, Palmer
How it was run: as §3

[26] = system: Ryegrass, Italian (Italian ryegrass, Lolium multiflorum); assay: Test A1 postemergence, Ryegrass, Italian; settings: Postemergence
How it was run: as §1

[27] = system: Oat, Wild (wild oat, Avena fatua); assay: Test A1 postemergence, Oat, Wild; settings: Postemergence
How it was run: as §2

[28] = 31 g ai/ha, 0 to 100 scale (0 no effect, 100 complete control), 10 days
[29] = 31 g ai/ha, 0 to 100 scale (0 no effect, 100 complete control)
[30] = 125 g ai/ha, 0 to 100 scale, 0 no effect, 100 complete control

## Cc1cc(C)c(C2=NOC3COCC23)cc1NS(=O)(=O)C(F)(F)F (stereo not drawn) [Compound 297]
[1]; [28]
  Plant response rating, Horseweed: 50
[1]; 125 g ai/ha, 0 to 100 scale
  Plant response rating, Horseweed: 80
[2]; [28]
  Plant response rating, Pigweed, Palmer: 10
[2]; 125 g ai/ha, 0 to 100 scale
  Plant response rating, Pigweed, Palmer: 20
[3]; [28]
  Plant response rating, Galium: 80
[3]; 125 g ai/ha, 0 to 100 scale
  Plant response rating, Galium: 90
[4]; [29]
  Plant response rating, Wheat: 20
[4]; [30]
  Plant response rating, Wheat: 100
[5]; [29]
  Plant response rating, Ryegrass, Italian: 0
[5]; [30]
  Plant response rating, Ryegrass, Italian: 90
[6]; [29]
  Plant response rating, Oat, Wild: 0
[6]; [30]
  Plant response rating, Oat, Wild: 20
[7]; [29]
  Plant response rating, Ragweed: 20
[7]; [30]
  Plant response rating, Ragweed: 60
[8]
  Plant response rating, Ducksalad (0 to 100 scale, 0 is no effect, 100 is complete control): 50
[9]; [29]
  Plant response rating, Blackgrass: 20
[9]; [30]
  Plant response rating, Blackgrass: 40
[10]; [29]
  Plant response rating, Kochia: 80
[10]; [30]
  Plant response rating, Kochia: 90
[11]; [28]
  Plant response rating, Soybean: 30
[11]; 125 g ai/ha, 0 to 100 scale
  Plant response rating, Soybean: 50
[12]; [29]
  Plant response rating, Soybean: 0
[12]; [30]
  Plant response rating, Soybean: 50
[13]; 31 g ai/ha, 10 days
  Plant response rating, Blackgrass: 0
[13]; 125 g ai/ha
  Plant response rating, Blackgrass: 0
[14]; [28]
  Plant response rating, Goosegrass: 0
[14]; 125 g ai/ha, 0 to 100 scale
  Plant response rating, Goosegrass: 70
[15]; [28]
  Plant response rating, Foxtail, Giant: 10
[15]; 125 g ai/ha, 0 to 100 scale
  Plant response rating, Foxtail, Giant: 60
[16]
  Plant response rating, Rice (0 to 100 scale, 0 is no effect, 100 is complete control): 0
[17]; [29]
  Plant response rating, Goosegrass: 70
[17]; [30]
  Plant response rating, Goosegrass: 90
[18]; [28]
  Plant response rating, Kochia: 0
[18]; 125 g ai/ha, 0 to 100 scale
  Plant response rating, Kochia: 60
[19]; [29]
  Plant response rating, Foxtail, Giant: 80
[19]; [30]
  Plant response rating, Foxtail, Giant: 100
[20]; [28]
  Plant response rating, Wheat: 10
[20]; 125 g ai/ha, 0 to 100 scale
  Plant response rating, Wheat: 80
[21]; [29]
  Plant response rating, Corn: 0
[21]; [30]
  Plant response rating, Corn: 20
[22]; [28]
  Plant response rating, Corn: 0
[22]; 125 g ai/ha, 0 to 100 scale
  Plant response rating, Corn: 0
[23]
  Plant response rating, Barnyardgrass (0 to 100 scale, 0 is no effect, 100 is complete control): 0
[24]; [28]
  Plant response rating, Ragweed: 30
[24]; 125 g ai/ha, 0 to 100 scale
  Plant response rating, Ragweed: 70
[25]; [29]
  Plant response rating, Pigweed, Palmer: 30
[25]; [30]
  Plant response rating, Pigweed, Palmer: 90
[26]; [28]
  Plant response rating, Ryegrass, Italian: 0
[26]; 125 g ai/ha, 0 to 100 scale
  Plant response rating, Ryegrass, Italian: 60
[27]; [28]
  Plant response rating, Oat, Wild: 20
[27]; 125 g ai/ha, 0 to 100 scale
  Plant response rating, Oat, Wild: 30

## Cc1cc(Br)c(C2=NOC3CCCC23)cc1NS(=O)(=O)C(F)(F)F (stereo not drawn) [Compound 302]
[1]; [28]
  Plant response rating, Horseweed: 10
[1]; 125 g ai/ha, 0 to 100 scale
  Plant response rating, Horseweed: 40
[2]; [28]
  Plant response rating, Pigweed, Palmer: 10
[2]; 125 g ai/ha, 0 to 100 scale
  Plant response rating, Pigweed, Palmer: 40
[3]; [28]
  Plant response rating, Galium: 0
[3]; 125 g ai/ha, 0 to 100 scale
  Plant response rating, Galium: 0
[4]; [29]
  Plant response rating, Wheat: 0
[4]; [30]
  Plant response rating, Wheat: 20
[5]; [29]
  Plant response rating, Ryegrass, Italian: 50
[5]; [30]
  Plant response rating, Ryegrass, Italian: 90
[6]; [29]
  Plant response rating, Oat, Wild: 0
[6]; [30]
  Plant response rating, Oat, Wild: 20
[7]; [29]
  Plant response rating, Ragweed: 0
[7]; [30]
  Plant response rating, Ragweed: 30
[8]
  Plant response rating, Ducksalad (0 to 100 scale, 0 is no effect, 100 is complete control): 70
[9]; [29]
  Plant response rating, Blackgrass: 0
[9]; [30]
  Plant response rating, Blackgrass: 0
[10]; [29]
  Plant response rating, Kochia: 30
[10]; [30]
  Plant response rating, Kochia: 80
[11]; [28]
  Plant response rating, Soybean: 20
[11]; 125 g ai/ha, 0 to 100 scale
  Plant response rating, Soybean: 40
[12]; [29]
  Plant response rating, Soybean: 0
[12]; [30]
  Plant response rating, Soybean: 20
[13]; 31 g ai/ha, 10 days
  Plant response rating, Blackgrass: 0
[13]; 125 g ai/ha
  Plant response rating, Blackgrass: 0
[14]; [28]
  Plant response rating, Goosegrass: 0
[14]; 125 g ai/ha, 0 to 100 scale
  Plant response rating, Goosegrass: 10
[15]; [28]
  Plant response rating, Foxtail, Giant: 0
[15]; 125 g ai/ha, 0 to 100 scale
  Plant response rating, Foxtail, Giant: 0
[16]
  Plant response rating, Rice (0 to 100 scale, 0 is no effect, 100 is complete control): 0
[17]; [29]
  Plant response rating, Goosegrass: 0
[17]; [30]
  Plant response rating, Goosegrass: 90
[18]; [28]
  Plant response rating, Kochia: 10
[18]; 125 g ai/ha, 0 to 100 scale
  Plant response rating, Kochia: 50
[19]; [29]
  Plant response rating, Foxtail, Giant: 20
[19]; [30]
  Plant response rating, Foxtail, Giant: 80
[20]; [28]
  Plant response rating, Wheat: 0
[20]; 125 g ai/ha, 0 to 100 scale
  Plant response rating, Wheat: 10
[21]; [29]
  Plant response rating, Corn: 0
[21]; [30]
  Plant response rating, Corn: 0
[22]; [28]
  Plant response rating, Corn: 0
[22]; 125 g ai/ha, 0 to 100 scale
  Plant response rating, Corn: 0
[23]
  Plant response rating, Barnyardgrass (0 to 100 scale, 0 is no effect, 100 is complete control): 0
[24]; [28]
  Plant response rating, Ragweed: 30
[24]; 125 g ai/ha, 0 to 100 scale
  Plant response rating, Ragweed: 70
[25]; [29]
  Plant response rating, Pigweed, Palmer: 20
[25]; [30]
  Plant response rating, Pigweed, Palmer: 50
[26]; [28]
  Plant response rating, Ryegrass, Italian: 0
[26]; 125 g ai/ha, 0 to 100 scale
  Plant response rating, Ryegrass, Italian: 0
[27]; [28]
  Plant response rating, Oat, Wild: 0
[27]; 125 g ai/ha, 0 to 100 scale
  Plant response rating, Oat, Wild: 0
